Assay results: patent US20190185518A9, “WARHEAD-CONTAINING PEPTIDOMIMETIC MACROCYCLES AS MODULATORS OF BFL-1” (AILERON Therapeutics, Inc., priority 2017, published 2019)
Positions of bridges follow the written chain, without caps; N, C: chain ends. Non-standard residues stand in square brackets, D forms with d. Residues, ends and D or L forms follow the SMILES beside them. 2Nal = N[C@@H](Cc1ccc2ccccc2c1)C(=O)O; tBuAla = CC(C)(C)C[C@H](N)C(=O)O; R8 = C=CCCCCCC[C@@](C)(N)C(=O)O; S5 = C=CCCC[C@](C)(N)C(=O)O

biological target: Mcl-1 (Homo sapiens, UniProt Q07820); assay: Ki determination for Mcl-1 (BCL-2 family binding spectrum); details: read-out: Ki MCL-1
Source text: To assess the binding and affinity of compounds that antagonize the interaction between a peptide and an acceptor protein, a fluorescence polarization assay (FPA) utilizing a fluoresceinated peptidomimetic macrocycle derived from a peptidomimetic precursor sequence is used, for example. The FPA technique measures the molecular orientation and mobility using polarized light and fluorescent tracer. […] A compound that antagonizes the interaction between the fluoresceinated peptidomimetic macrocycle and an acceptor protein will be detected in a competitive binding FPA experiment.
Antagonist binding activity is measured, for example, by fluorescence polarization on a luminescence spectrophotometer (e.g. Perkin-Elmer LS50B). Kd values may be determined by nonlinear regression analysis using, for example, Graphpad Prism software (GraphPad Software, Inc., San Diego, Calif.).

Chain of Mcl-1 (Q07820 whole entry, species assumed): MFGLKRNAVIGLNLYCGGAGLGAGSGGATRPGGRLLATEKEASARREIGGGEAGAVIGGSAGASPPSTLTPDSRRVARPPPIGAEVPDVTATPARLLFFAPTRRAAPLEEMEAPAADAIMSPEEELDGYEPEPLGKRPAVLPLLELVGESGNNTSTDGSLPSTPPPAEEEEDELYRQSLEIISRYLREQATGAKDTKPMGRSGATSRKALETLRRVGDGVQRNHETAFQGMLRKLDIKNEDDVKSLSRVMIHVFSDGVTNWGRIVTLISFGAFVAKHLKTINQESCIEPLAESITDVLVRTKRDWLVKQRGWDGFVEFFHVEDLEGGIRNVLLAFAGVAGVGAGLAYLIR

Compared with `CC[C@H](C)[C@H](NC(C)=O)C(=O)N[C@@H](C)C(=O)N[C@H](C(=O)N[C@@H](C)C(=O)N[C@@H](CCC(N)=O)C(=O)N[C@@H](C)C(=O)N[C@@H](CC(C)C)C(=O)N[C@@H](CCCNC(=N)N)C(=O)N[C@]1(C)CCCCCCC=CCCC[C@@](C)(C(=O)N[C@@H](Cc2ccc(O)cc2)C(=O)N[C@@H](Cc2ccc(O)cc2)C(=O)N[C@@H](C)C(N)=O)NC(=O)[C@H](CC(N)=O)NC(=O)[C@H](Cc2ccccc2)NC(=O)[C@H](C)NC(=O)[C@H](CC(=O)O)NC(=O)CNC(=O)[C@H]([C@@H](C)CC)NC1=O)[C@@H](C)CC` [compound 1648] (Ac-IAIAQALR[R8]IGDAFN[S5]YYA-NH2; staple 9-16), `CC[C@H](C)[C@H](NC(C)=O)C(=O)N[C@@H](CC(C)C)C(=O)N[C@H](C(=O)N[C@@H](C)C(=O)N[C@@H](C)C(=O)N[C@@H](C)C(=O)N[C@@H](CC(C)C)C(=O)N[C@@H](CCCNC(=N)N)C(=O)N[C@]1(C)CCCCCCC=CCCC[C@@](C)(C(=O)N[C@@H](Cc2ccc(O)cc2)C(=O)N[C@@H](Cc2ccc(O)cc2)C(=O)N[C@@H](C)C(N)=O)NC(=O)[C@H](CC(N)=O)NC(=O)[C@H](Cc2ccccc2)NC(=O)[C@H](C)NC(=O)[C@H](CC(=O)O)NC(=O)CNC(=O)[C@H]([C@@H](C)CC)NC1=O)[C@@H](C)CC` [compound 1730] (Ac-ILIAAALR[R8]IGDAFN[S5]YYA-NH2; staple 9-16) is 1.9-fold lower in Ki: 19.7 nM for the first, 10.2 nM for the second. The second binds more tightly here.

First: CC[C@H](C)[C@H](NC(C)=O)C(=O)N[C@@H](Cc1c[nH]c2ccccc12)C(=O)N[C@H](C(=O)N[C@@H](C)C(=O)N[C@@H](CCC(N)=O)C(=O)N[C@@H](C)C(=O)N[C@@H](CC(C)C)C(=O)N[C@@H](CCCNC(=N)N)C(=O)N[C@]1(C)CCCCCC/C=C\CCC[C@@](C)(C(=O)N[C@@H](Cc2ccc(O)cc2)C(=O)N[C@@H](Cc2ccc(O)cc2)C(=O)N[C@@H](C)C(N)=O)NC(=O)[C@H](CC(N)=O)NC(=O)[C@H](Cc2ccccc2)NC(=O)[C@H](C)NC(=O)[C@H](CC(=O)O)NC(=O)CNC(=O)[C@H](CC(C)(C)C)NC1=O)[C@@H](C)CC [compound 1701] (Ac-IWIAQALR[R8][tBuAla]GDAFN[S5]YYA-NH2; staple (Z) 9-16)
Second: CC[C@H](C)[C@H](NC(C)=O)C(=O)N[C@@H](Cc1c[nH]c2ccccc12)C(=O)N[C@H](C(=O)N[C@@H](C)C(=O)N[C@@H](C)C(=O)N[C@@H](C)C(=O)N[C@@H](CC(C)C)C(=O)N[C@@H](CCCNC(=N)N)C(=O)N[C@]1(C)CCCCCCC=CCCC[C@@](C)(C(=O)N[C@@H](Cc2ccc(O)cc2)C(=O)N[C@@H](Cc2ccc(O)cc2)C(=O)N[C@@H](CCC(N)=O)C(N)=O)NC(=O)[C@H](CC(N)=O)NC(=O)[C@H](Cc2ccccc2)NC(=O)[C@H](C)NC(=O)[C@H](CC(=O)O)NC(=O)CNC(=O)[C@H]([C@@H](C)CC)NC1=O)[C@@H](C)CC [compound 1762] (Ac-IWIAAALR[R8]IGDAFN[S5]YYQ-NH2; staple 9-16)
The Ki of the first is 3-fold higher: 13.7 nM for the first, 4.6 nM for the second.

First: CC[C@H](C)[C@H](NC(C)=O)C(=O)N[C@@H](Cc1c[nH]c2ccccc12)C(=O)N[C@H](C(=O)N[C@@H](C)C(=O)N[C@@H](C)C(=O)N[C@@H](C)C(=O)N[C@@H](CC(C)C)C(=O)N[C@@H](CCCNC(=N)N)C(=O)N[C@]1(C)CCCCCCC=CCCC[C@@](C)(C(=O)N[C@@H](Cc2ccc(O)cc2)C(=O)N[C@@H](Cc2ccc(O)cc2)C(=O)N[C@@H](C)C(N)=O)NC(=O)[C@H](CO)NC(=O)[C@H](Cc2ccccc2)NC(=O)[C@H](C)NC(=O)[C@H](CC(=O)O)NC(=O)CNC(=O)[C@H]([C@@H](C)CC)NC1=O)[C@@H](C)CC [compound 1751] (Ac-IWIAAALR[R8]IGDAFS[S5]YYA-NH2; staple 9-16)
Second: CC[C@H](C)[C@H](NC(C)=O)C(=O)N[C@@H](Cc1c[nH]c2ccccc12)C(=O)N[C@H](C(=O)N[C@@H](CC(C)C)C(=O)N[C@@H](C)C(=O)N[C@@H](C)C(=O)N[C@@H](CC(C)C)C(=O)N[C@@H](CCCNC(=N)N)C(=O)N[C@]1(C)CCCCCCC=CCCC[C@@](C)(C(=O)N[C@@H](Cc2ccc(O)cc2)C(=O)N[C@@H](Cc2ccc(O)cc2)C(=O)N[C@@H](C)C(N)=O)NC(=O)[C@H](CC(N)=O)NC(=O)[C@H](Cc2ccccc2)NC(=O)[C@H](C)NC(=O)[C@H](CC(=O)O)NC(=O)CNC(=O)[C@H]([C@@H](C)CC)NC1=O)[C@@H](C)CC [compound 1734] (Ac-IWILAALR[R8]IGDAFN[S5]YYA-NH2; staple 9-16)
The Ki of the first is 2.5-fold lower: 8 nM for the first, 19.7 nM for the second. The first binds more tightly here.

First: CC[C@H](C)[C@H](NC(C)=O)C(=O)N[C@@H](Cc1c[nH]c2ccccc12)C(=O)N[C@H](C(=O)N[C@@H](C)C(=O)N[C@@H](C)C(=O)N[C@@H](C)C(=O)N[C@@H](CC(C)C)C(=O)N[C@@H](CCCNC(=N)N)C(=O)N[C@]1(C)CCCCCCC=CCCC[C@@](C)(C(=O)N[C@@H](Cc2ccc(O)cc2)C(=O)N[C@@H](Cc2ccc(O)cc2)C(=O)N[C@@H](Cc2c[nH]cn2)C(N)=O)NC(=O)[C@H](CC(N)=O)NC(=O)[C@H](Cc2ccccc2)NC(=O)[C@H](C)NC(=O)[C@H](CC(=O)O)NC(=O)CNC(=O)[C@H]([C@@H](C)CC)NC1=O)[C@@H](C)CC [compound 1764] (Ac-IWIAAALR[R8]IGDAFN[S5]YYH-NH2; staple 9-16)
Second: CC[C@H](C)[C@H](NC(C)=O)C(=O)N[C@@H](Cc1c[nH]c2ccccc12)C(=O)N[C@H](C(=O)N[C@@H](C)C(=O)N[C@@H](C)C(=O)N[C@@H](C)C(=O)N[C@@H](CC(C)C)C(=O)N[C@@H](CCCNC(=N)N)C(=O)N[C@]1(C)CCCCCCC=CCCC[C@@](C)(C(=O)N[C@@H](Cc2ccc(O)cc2)C(=O)N[C@@H](Cc2ccc(O)cc2)C(=O)N[C@@H](CC(=O)O)C(N)=O)NC(=O)[C@H](CC(N)=O)NC(=O)[C@H](Cc2ccccc2)NC(=O)[C@H](C)NC(=O)[C@H](CC(=O)O)NC(=O)CNC(=O)[C@H]([C@@H](C)CC)NC1=O)[C@@H](C)CC [compound 1760] (Ac-IWIAAALR[R8]IGDAFN[S5]YYD-NH2; staple 9-16)
The Ki of the first is 4.8-fold higher: 10.6 nM for the first, 2.2 nM for the second. The second binds more tightly here.

First: CC[C@H](C)[C@H](NC(C)=O)C(=O)N[C@@H](Cc1c[nH]c2ccccc12)C(=O)N[C@H](C(=O)N[C@@H](C)C(=O)N[C@@H](C)C(=O)N[C@@H](C)C(=O)N[C@@H](CC(C)C)C(=O)N[C@@H](CCCNC(=N)N)C(=O)N[C@]1(C)CCCCCCC=CCCC[C@@](C)(C(=O)N[C@@H](Cc2ccc(O)cc2)C(=O)N[C@@H](Cc2ccc(O)cc2)C(=O)N[C@@H](CCCCN)C(N)=O)NC(=O)[C@H](CC(N)=O)NC(=O)[C@H](Cc2ccccc2)NC(=O)[C@H](C)NC(=O)[C@H](CC(=O)O)NC(=O)CNC(=O)[C@H]([C@@H](C)CC)NC1=O)[C@@H](C)CC [compound 1766] (Ac-IWIAAALR[R8]IGDAFN[S5]YYK-NH2; staple 9-16)
Second: CC[C@H](C)[C@H](NC(=O)[C@H](Cc1c[nH]c2ccccc12)NC(=O)[C@H](CCCCN)NC(C)=O)C(=O)N[C@@H](C)C(=O)N[C@@H](C)C(=O)N[C@@H](C)C(=O)N[C@@H](CC(C)C)C(=O)N[C@@H](CCCNC(=N)N)C(=O)N[C@]1(C)CCCCCCC=CCCC[C@@](C)(C(=O)N[C@@H](Cc2ccc(O)cc2)C(=O)N[C@@H](Cc2ccc(O)cc2)C(=O)N[C@@H](C)C(N)=O)NC(=O)[C@H](CC(N)=O)NC(=O)[C@H](Cc2ccccc2)NC(=O)[C@H](C)NC(=O)[C@H](CC(=O)O)NC(=O)CNC(=O)[C@H]([C@@H](C)CC)NC1=O [compound 1718] (Ac-KWIAAALR[R8]IGDAFN[S5]YYA-NH2; staple 9-16)
The Ki of the first is 1.7-fold higher: 6.6 nM for the first, 3.9 nM for the second. The second binds more tightly here.

Going from `CC[C@H](C)[C@H](NC(=O)[C@H](Cc1c[nH]c2ccccc12)NC(=O)[C@H](CO)NC(C)=O)C(=O)N[C@@H](C)C(=O)N[C@@H](C)C(=O)N[C@@H](C)C(=O)N[C@@H](CC(C)C)C(=O)N[C@@H](CCCNC(=N)N)C(=O)N[C@]1(C)CCCCCCC=CCCC[C@@](C)(C(=O)N[C@@H](Cc2ccc(O)cc2)C(=O)N[C@@H](Cc2ccc(O)cc2)C(=O)N[C@@H](C)C(N)=O)NC(=O)[C@H](CC(N)=O)NC(=O)[C@H](Cc2ccccc2)NC(=O)[C@H](C)NC(=O)[C@H](CC(=O)O)NC(=O)CNC(=O)[C@H]([C@@H](C)CC)NC1=O` [compound 1720] (Ac-SWIAAALR[R8]IGDAFN[S5]YYA-NH2; staple 9-16) to `CC[C@H](C)[C@H](NC(C)=O)C(=O)N[C@@H](Cc1ccccc1)C(=O)N[C@H](C(=O)N[C@@H](C)C(=O)N[C@@H](C)C(=O)N[C@@H](C)C(=O)N[C@@H](CC(C)C)C(=O)N[C@@H](CCCNC(=N)N)C(=O)N[C@]1(C)CCCCCCC=CCCC[C@@](C)(C(=O)N[C@@H](Cc2ccc(O)cc2)C(=O)N[C@@H](Cc2ccc(O)cc2)C(=O)N[C@@H](C)C(N)=O)NC(=O)[C@H](CC(N)=O)NC(=O)[C@H](Cc2ccccc2)NC(=O)[C@H](C)NC(=O)[C@H](CC(=O)O)NC(=O)CNC(=O)[C@H]([C@@H](C)CC)NC1=O)[C@@H](C)CC` [compound 1731] (Ac-IFIAAALR[R8]IGDAFN[S5]YYA-NH2; staple 9-16), the Ki rises from 3.9 nM to 10.2 nM (2.6-fold). The first binds more tightly here.

With `CC[C@H](C)[C@H](NC(C)=O)C(=O)N[C@@H](Cc1c[nH]c2ccccc12)C(=O)N[C@H](C(=O)N[C@@H](C)C(=O)N[C@@H](CCC(N)=O)C(=O)N[C@@H](C)C(=O)N[C@@H](CC(C)C)C(=O)N[C@@H](CCCNC(=N)N)C(=O)N[C@]1(C)CCCCCCC=CCCC[C@@](C)(C(=O)N[C@@H](Cc2ccc(O)cc2)C(=O)N[C@@H](Cc2ccc3ccccc3c2)C(=O)N[C@@H](C)C(N)=O)NC(=O)[C@H](CC(N)=O)NC(=O)[C@H](Cc2ccccc2)NC(=O)[C@H](C)NC(=O)[C@H](CC(=O)O)NC(=O)CNC(=O)[C@H]([C@@H](C)CC)NC1=O)[C@@H](C)CC` [compound 1759] (Ac-IWIAQALR[R8]IGDAFN[S5]Y[2Nal]A-NH2; staple 9-16) the Ki was 8 nM.
